According to US8404738B2 (Hoffmann-La Roche Inc., priority 2011, dated 2013):
pEC50, pIC50: −log10 of the molar value.

What was measured:
HDAC6 = biological target: T1, HDAC6 (Homo sapiens, UniProt Q9UBN7); assay: Tubulin acetylation cytoblot assay (A549 cells); format: cell-based; conditions: 17-18 h incubation, tubulin acetylation as marker of HDAC6 inhibition, read-out: Tub-Ac EC50
T1 construct: endogenous in cells; host or cells: A549 cells
T1 sequence (Q9UBN7 1-1215): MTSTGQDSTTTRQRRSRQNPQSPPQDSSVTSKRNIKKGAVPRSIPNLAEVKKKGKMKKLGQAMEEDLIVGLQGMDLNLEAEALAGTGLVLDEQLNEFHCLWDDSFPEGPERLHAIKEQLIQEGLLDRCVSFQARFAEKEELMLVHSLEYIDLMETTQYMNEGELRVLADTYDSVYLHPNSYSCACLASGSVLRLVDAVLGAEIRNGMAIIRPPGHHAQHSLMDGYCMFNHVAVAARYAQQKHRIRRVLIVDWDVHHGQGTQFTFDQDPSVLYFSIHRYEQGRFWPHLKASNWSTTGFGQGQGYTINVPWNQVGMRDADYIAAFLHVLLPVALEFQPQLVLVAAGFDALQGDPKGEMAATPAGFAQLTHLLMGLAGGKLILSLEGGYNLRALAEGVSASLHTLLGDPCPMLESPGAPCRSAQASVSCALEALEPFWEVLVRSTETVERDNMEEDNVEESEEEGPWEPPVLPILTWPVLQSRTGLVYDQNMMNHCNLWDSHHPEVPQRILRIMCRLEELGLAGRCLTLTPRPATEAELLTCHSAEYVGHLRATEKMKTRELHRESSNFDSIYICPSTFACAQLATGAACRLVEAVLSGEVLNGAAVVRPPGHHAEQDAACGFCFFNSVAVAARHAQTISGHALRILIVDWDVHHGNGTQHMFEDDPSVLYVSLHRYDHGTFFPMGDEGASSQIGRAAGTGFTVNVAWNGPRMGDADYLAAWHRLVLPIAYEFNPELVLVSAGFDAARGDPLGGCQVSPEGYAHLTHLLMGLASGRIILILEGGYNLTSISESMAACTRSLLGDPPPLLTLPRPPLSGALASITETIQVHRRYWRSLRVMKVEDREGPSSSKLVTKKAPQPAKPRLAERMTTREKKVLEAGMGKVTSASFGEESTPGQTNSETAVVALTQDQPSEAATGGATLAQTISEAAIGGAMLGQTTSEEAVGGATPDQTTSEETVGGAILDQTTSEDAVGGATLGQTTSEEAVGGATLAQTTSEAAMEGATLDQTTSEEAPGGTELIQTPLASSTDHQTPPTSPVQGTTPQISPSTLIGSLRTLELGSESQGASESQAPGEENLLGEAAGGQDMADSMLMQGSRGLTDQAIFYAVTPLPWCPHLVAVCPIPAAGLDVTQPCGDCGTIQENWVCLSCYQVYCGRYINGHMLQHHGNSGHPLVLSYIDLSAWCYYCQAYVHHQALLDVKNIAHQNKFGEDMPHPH
Protocol: Tubulin Acetylation Induction by Novel Compounds: Tubulin Acetylation Cytoblot Assay.
Tubulin acetylation is a PD marker for HDAC6 inhibition. The extent of tubulin acetylation represents the inhibitory effect on HDAC6.
Novel compounds were tested for their ability to inhibit HDAC6 using a cell-based deacetylation assay. Tubulin acetylation was detected by the anti-acetylated tubulin antibody (Sigma) and horse radish peroxidase (HRP) conjugated secondary antibody (KangChen Bio. Tech.). […] 20 μl of diluted compound solution was transferred to the cell culture plate and incubated for 17-18 h. After medium removal and fixation by formaldehyde (3.7% paraformaldehyde in TBS), the cells in the plates were treated with 180 μl of −20° C. MeOH and incubated for 5 min at rt. The cell lysis was incubated with 75 μl of primary anti-acetylated tubulin antibody and secondary HRP conjugated antibody solution (1:750 anti-acetylated tubulin, 1:750 HRP conjugated anti-mouse IgG in antibody dilution buffer not containing sodium azide) for 4 h at 4° C. By adding the HRP substrate, enhanced chemiluminescence (ECL) reagent (GE Healthcare) generated luminescence corresponding to the level of tubulin acetylation. So that 75 μl of ECL was added into the wells and the luminescence from each well was immediately quantified by the plate reader. Based on the luminescence reading, the Tub-Ac EC50s against HDAC6 of the tested compounds were calculated by plotting the curve with XLfit4.0 software. Inhibition %=[signal(sample)−Mean(bottom)]×100/[Mean(top)−Mean(bottom)]

[1] = system: p21 promoter-luciferase construct; assay: p21 reporter gene induction (HeLa cells, p21 promoter-luciferase construct); conditions: for p21 RP3: relative gene level of p21 compared to MS275 at 3 μM; for p21 RP10: relative level of p21 compared to MS275 at 10 μM; for p21 RP30: relative level of p21 compared to MS275 at 30 μM;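 for all read-outs here: transfected HeLa cells exposed to compound for 15 h, luciferase luminescence read from lysates, p21 promoter lacks p53 site, proxy for cellular HDAC1/2/3 inhibition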
recombinant human HDAC8 = biological target: T2, recombinant human HDAC8 (Homo sapiens, UniProt Q9BY41); assay: HDAC8 inhibition: recombinant HDAC8 fluorometric assay; format: biochemical; conditions: recombinant human HDAC8, substrate Ac-Arg-His-Lys-Lys(ε-acetyl)-AMC; read-out: HDAC8 IC50
T2 construct: made in house; host or cells: insect cells
T2 sequence (Q9BY41 1-377): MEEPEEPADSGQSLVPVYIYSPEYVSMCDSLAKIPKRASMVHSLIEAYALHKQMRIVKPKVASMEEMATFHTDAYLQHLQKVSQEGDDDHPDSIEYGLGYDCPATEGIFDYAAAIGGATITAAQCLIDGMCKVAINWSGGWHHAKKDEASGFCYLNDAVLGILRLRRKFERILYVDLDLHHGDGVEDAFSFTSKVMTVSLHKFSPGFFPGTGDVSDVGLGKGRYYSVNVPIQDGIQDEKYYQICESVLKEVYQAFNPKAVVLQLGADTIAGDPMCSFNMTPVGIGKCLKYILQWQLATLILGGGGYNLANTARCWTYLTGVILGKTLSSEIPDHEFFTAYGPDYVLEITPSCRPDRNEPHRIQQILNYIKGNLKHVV
Protocol: HDAC8 Inhibition by Novel Compounds: Recombinant HDAC8 Fluorometric Assay.
A competitive inhibitory assay of HDAC8 was carried out by using recombinant HDAC8 and a commercial substrate Ac-Arg-His-Lys-Lys(ε-acetyl)-AMC.
Compounds were tested for their ability to inhibit histone deacetylase 8 using an in vitro deacetylation assay. The enzyme source for this assay was recombinant human HDAC8 protein expressed and purified from insect cells. […] The substrate consisted of a commercial product Ac-Arg-His-Lys-Lys(ε-acetyl)-AMC (substrate is available from Cayman Chemical). […] 1 μl of half-log diluted compounds were added into wells and incubated for 15 min at rt. After that, 8 μl of substrate solution was transferred to the wells and incubated for 30 min at rt. After deacetylation of the substrate by incubation with HDAC8 enzyme, subsequent exposure to a developing reagent produced a fluorophore that was directly proportional to the level of deacetylation. […] The fluorescence signal was measured by a FlexStation3 plate reader (excitation wave length 340-360 nm; emission wave length 440-465 nm). The HDAC8 IC50 was calculated after normalization and curve fitting using XLfit4.0 software. Inhibition %=[Mean(top)−signal(sample)]×100/[Mean(top)−Mean(bottom)].

CC(C)(C)c1ccc(N2CCC(Nc3ccc(C(=O)NO)cc3)C2=O)cc1 (centres unmarked) [Example 16, 4-[1-(4-tert-Butyl-phenyl)-2-oxo-pyrrolidin-3-ylamino]-N-hydroxy-benzamide]
pEC50 (HDAC6): 5.97 | p21 RP3 [1]: 0.17 | p21 RP10 [1]: 0.12 | p21 RP30 [1]: −0.03 | pIC50 (recombinant human HDAC8): 5.73

CS(=O)(=O)c1ccc(N2CCC(Nc3ccc(C(=O)NO)cc3)C2=O)cc1 (centres unmarked) [Example 17, N-Hydroxy-4-[1-(4-methanesulfonyl-phenyl)-2-oxo-pyrrolidin-3-ylamino]-benzamide]
pEC50 (HDAC6): 4.93 | p21 RP3 [1]: 0.00 | p21 RP10 [1]: 0.02 | p21 RP30 [1]: 0.02 | pIC50 (recombinant human HDAC8): 5.92

N#Cc1cccc(N2CCC(Nc3ccc(C(=O)NO)cc3)C2=O)c1 (centres unmarked) [Example 18, 4-[1-(3-Cyano-phenyl)-2-oxo-pyrrolidin-3-ylamino]-N-hydroxy-benzamide]
pEC50 (HDAC6): 5.37 | p21 RP3 [1]: 0.61 | p21 RP10 [1]: 0.02 | p21 RP30 [1]: −0.01 | pIC50 (recombinant human HDAC8): 5.79

N#Cc1ccc(N2CCC(Nc3ccc(C(=O)NO)cc3)C2=O)cc1 (centres unmarked) [Example 19, 4-[1-(4-Cyano-phenyl)-2-oxo-pyrrolidin-3-ylamino]-N-hydroxy-benzamide]
pEC50 (HDAC6): 5.50 | p21 RP3 [1]: 0.46 | p21 RP10 [1]: 0.00 | p21 RP30 [1]: −0.03 | pIC50 (recombinant human HDAC8): 5.98

O=C(NO)c1ccc(NC2CCN(c3ccc(F)c(Cl)c3)C2=O)cc1 (centres unmarked) [Example 20, 4-[1-(3-Chloro-4-fluoro-phenyl)-2-oxo-pyrrolidin-3-ylamino]-N-hydroxy-benzamide]
pEC50 (HDAC6): 6.02 | p21 RP3 [1]: 0.37 | p21 RP10 [1]: 0.10 | p21 RP30 [1]: 0.12 | pIC50 (recombinant human HDAC8): 5.92

O=C(NO)c1ccc(NC2CCN(c3cc(F)cc(Cl)c3)C2=O)cc1 (centres unmarked) [Example 21, 4-[1-(3-Chloro-5-fluoro-phenyl)-2-oxo-pyrrolidin-3-ylamino]-N-hydroxy-benzamide]
pEC50 (HDAC6): 5.33 | p21 RP3 [1]: 1.56 | p21 RP10 [1]: 0.48 | p21 RP30 [1]: 0.28 | pIC50 (recombinant human HDAC8): 6.00

O=C(NO)c1ccc(NC2CCN(c3cc(Cl)ccc3F)C2=O)cc1 (centres unmarked) [Example 22, 4-[1-(5-Chloro-2-fluoro-phenyl)-2-oxo-pyrrolidin-3-ylamino]-N-hydroxy-benzamide]
pEC50 (HDAC6): 5.88 | p21 RP3 [1]: 0.42 | p21 RP10 [1]: 0.28 | p21 RP30 [1]: 0.39 | pIC50 (recombinant human HDAC8): 5.71

O=C(NO)c1ccc(NC2CCN(c3cccc(Cl)c3Cl)C2=O)cc1 (centres unmarked) [Example 24, 4-[1-(2,3-Dichloro-phenyl)-2-oxo-pyrrolidin-3-ylamino]-N-hydroxy-benzamide]
pEC50 (HDAC6): 5.61 | p21 RP3 [1]: 0.11 | p21 RP10 [1]: 0.02 | p21 RP30 [1]: 0.02 | pIC50 (recombinant human HDAC8): 6.11

O=C(NO)c1ccc(NC2CCN(c3ccc(Cl)c(Cl)c3)C2=O)cc1 (centres unmarked) [Example 25, 4-[1-(3,4-Dichloro-phenyl)-2-oxo-pyrrolidin-3-ylamino]-N-hydroxy-benzamide]
pEC50 (HDAC6): 5.36 | p21 RP3 [1]: 0.00 | p21 RP10 [1]: 0.14 | p21 RP30 [1]: −0.03 | pIC50 (recombinant human HDAC8): 6.01

O=C(NO)c1ccc(NC2CCN(c3cc(Cl)cc(Cl)c3)C2=O)cc1 (centres unmarked) [Example 26, 4-[1-(3,5-Dichloro-phenyl)-2-oxo-pyrrolidin-3-ylamino]-N-hydroxy-benzamide]
pEC50 (HDAC6): 5.31 | p21 RP3 [1]: 0.42 | p21 RP10 [1]: 0.06 | p21 RP30 [1]: 0.04 | pIC50 (recombinant human HDAC8): 5.33

O=C(NO)c1ccc(NC2CCN(c3c(Cl)cccc3Cl)C2=O)cc1 (centres unmarked) [Example 27, 4-[1-(2,6-Dichloro-phenyl)-2-oxo-pyrrolidin-3-ylamino]-N-hydroxy-benzamide]
pEC50 (HDAC6): 5.62 | p21 RP3 [1]: 0.11 | p21 RP10 [1]: 0.03 | p21 RP30 [1]: 0.04 | pIC50 (recombinant human HDAC8): 6.12

Cc1cc(F)cc(C)c1N1CCC(Nc2ccc(C(=O)NO)cc2)C1=O (centres unmarked) [Example 28, 4-[1-(4-Fluoro-2,6-dimethyl-phenyl)-2-oxo-pyrrolidin-3-ylamino]-N-hydroxy-benzamide]
pEC50 (HDAC6): 5.39 | p21 RP3 [1]: 0.04 | p21 RP10 [1]: 0.01 | p21 RP30 [1]: 0.01 | pIC50 (recombinant human HDAC8): 5.73

O=C(NO)c1ccc(NC2CCN(c3ccc(Cl)c(CO)c3)C2=O)cc1 (centres unmarked) [Example 29, 4-[1-(4-Chloro-3-hydroxymethyl-phenyl)-2-oxo-pyrrolidin-3-ylamino]-N-hydroxy-benzamide]
pEC50 (HDAC6): 4.86 | p21 RP3 [1]: 0.55 | p21 RP10 [1]: 0.10 | p21 RP30 [1]: 0.12 | pIC50 (recombinant human HDAC8): 6.12
